According to patent EP4813381A1, “PHARMACEUTICAL USE OF GUAIANE SESQUITERPENE DERIVATIVE” (Nanjing University Of Chinese Medicine, priority 2023, dated 2025):
Values after ≈ are worked out from the molar mass of the structure shown. One block for each molecule: values may come before it.

Assays:
MDSCs = test: Inhibition of MDSC chemotaxis (Transwell, Hepa1-6 tumor-conditioned medium); format: cell-based, mice; settings: 12 h treatment, 24 h Transwell
Description: Hepa1-6 mouse hepatocellular carcinoma cells were uniformly seeded into 6-well plates. After cells reached confluence, supernatant was aspirated, and 1-1.5 mL fresh medium was added to each well. Following 24 h culture, supernatant was collected, centrifuged at 1600 rpm for 5 min, aspirated, and filtered through a 0.22 µm membrane to obtain tumor-conditioned medium for subsequent use. Euthanize mice by cervical dislocation and immerse in 75% ethanol solution for 5 min. Under sterile conditions, remove the tibia, cut both ends of the bone, and aspirate the bone marrow into a 1 mL syringe. Repeat flushing into a 15 mL centrifuge tube. Centrifuge at 1600 rpm for 5 min to collect bone marrow cells. Wash twice with 1×PBS. Resuspend cells in complete RPMI 1640 medium containing cytokines GM-CSF (10 ng/mL) and IL-4 (10 ng/mL) to stimulate differentiation into MDSCs. Count cells, adjust density to 1×10^6 cells/mL, and uniformly seed into 24-well plates at 300 µL per well. […] Centrifuge at 1600 rpm for 5 min, remove supernatant, resuspend cells in 300 µL fresh medium, and place into Transwell chambers. Add 600 µL normal medium (control group) or tumor-conditioned medium (model group) to the lower chamber. Co-culture for 24 h.

CCR2 mRNA = CCR2 mRNA level in MDSCs (PCR); format: cell-based, mice; settings: CCR2 mRNA levels in MDSCs, 2 h
Description: Mice were euthanized by cervical dislocation and immersed in 75% ethanol solution for 5 min. Under sterile conditions, the tibia was removed, both ends of the bone were cut, and bone marrow was repeatedly flushed into a 15 mL centrifuge tube using a 1 mL syringe filled with culture medium. Centrifuge at 1600 rpm for 5 min to collect bone marrow cells. Wash twice with 1×PBS, then resuspend in RPMI 1640 complete medium containing GM-CSF (10 ng/mL) + IL-4 (10 ng/mL) and transfer to a cell culture dish to stimulate differentiation of bone marrow cells into MDSCs. Count cells and adjust density to 1 × 10^6 cells/mL in complete medium. Seed cells uniformly into 6-well plates at 2 mL per well. […] After incubation, collect cells into centrifuge tubes, centrifuge at 1600 rpm for 5 min, wash once with 1×PBS, and add 500 µL RNA extraction reagent to each tube. After centrifugation to obtain the pellet, add 20 µL DEPC-treated water to each tube to dissolve the pellet. Determine RNA concentration and reverse transcribe to cDNA. Add the cDNA, primers, and reverse transcriptase to a 96-well plate. Centrifuge at 4000 rpm for 5 min, then place in a PCR instrument for detection.

Hepa1-6 cells = test: Hepa1-6 mouse hepatocellular carcinoma subcutaneous xenograft model; format: in vivo, C57BL/6 mice
Description: (§1) Hepa1-6 cells were cultured and expanded in vitro. An appropriate amount of cells in the logarithmic growth phase was resuspended in a mixture of serum-free DMEM medium and Matrigel (1:1). under aseptic conditions to prepare a 2.5×10^6/100 µL cell suspension. A 100 µL aliquot of this suspension was injected subcutaneously into the left forearm axilla of male C57BL/6 mice. […] Daily oral administration was performed for 2 weeks. During the treatment period, mouse body weight and tumor diameter were measured daily. At the end of the experiment, mice were euthanized by cervical dislocation, and tumors were removed for weighing. Tumor volume (TV) was calculated using the formula: TV = 1/2 × a × b^2, where a represents the longest diameter of the tumor and b represents the shortest diameter.

H22 cells = test system: H22 cells; parameters: species or system BALB/c mice; settings: mouse, in vivo, po
Description: as §1, with “H22” for “Hepa1-6”, “An appropriate amount of cells in the logarithmic growth phase was resuspended in a mixture of serum-free DMEM medium and Matrigel (1:1). under aseptic conditions to prepare a 2.5×10^6/100 µL cell suspension.” left out, “forelimb” for “forearm”, “BALB/c” for “C57BL/6”

MDSCs; T cells = test system: MDSCs; T cells; parameters: species or system BALB/c mice; settings: mouse, in vivo, po
Description: as §1, with “H22” for “Hepa1-6”, “An appropriate amount of cells in the logarithmic growth phase was resuspended in a mixture of serum-free DMEM medium and Matrigel (1:1). under aseptic conditions to prepare a 2.5×10^6/100 µL cell suspension.” left out, “forelimb” for “forearm”, “BALB/c” for “C57BL/6”
Once all tumors were dissected, nail-sized tumor pieces were transferred to 1.5 mL Eppendorf tubes and minced with scissors. […] After digestion, pass the mixture through a 200-mesh sieve to obtain the tumor cell suspension. […] Position the spleen on a 200-mesh cell strainer. Gently press the spleen using a 10 mL syringe needle. […] Transfer the washed splenocyte suspension into a 15 mL centrifuge tube. Centrifuge at 1600 rpm for 5 min to collect cells. Wash once with 1×PBS. Add 3 mL red blood cell lysis buffer (diluted with ddH2O) to each tube and incubate for 5 min. After lysis, add 10 mL 1×PBS to each tube to terminate lysis. Centrifuge at 1600 rpm for 5 min. Add 1 mL 1×PBS to each 15 mL centrifuge tube, transfer to 1.5 mL EP tubes, and centrifuge at 1600 rpm for 5 min. Add 1 mL 1×PBS to each tube containing stained tumor cells and lysed spleen cells for one wash, centrifuge at 1600 rpm for 5 min, and remove the supernatant.
Once all tumors were dissected, nail-sized tumor pieces were transferred to 1.5 mL Eppendorf tubes and minced with scissors. […] After digestion, pass the mixture through a 200-mesh sieve to obtain the tumor cell suspension. Centrifuge the resulting tumor suspension at 1600 rpm for 5 min, aspirate the supernatant, resuspend cells in 1 mL of 1×PBS per tube. […] Position the spleen on a 200-mesh cell strainer. Gently press the spleen using a 10 mL syringe needle. […] Transfer the splenocyte suspension into a 15 mL centrifuge tube. Centrifuge at 1600 rpm for 5 min to collect cells. Wash once with 1×PBS. Add 3 mL red blood cell lysis buffer (diluted with ddH2O) to each tube and incubate for 5 min. After lysis, add 10 mL 1×PBS to each tube to terminate lysis. Centrifuge at 1600 rpm for 5 min.

CT26 cells = format: in vivo, BALB/c mice
4T1 cells = format: in vivo, BALB/c mice
Description: 4T1 cells were cultured and expanded in vitro. […] A 100 µL aliquot of this suspension was injected subcutaneously into the left forelimb axilla of female BALB/c mice. […] Daily oral administration was performed for 3 weeks. During the treatment period, mouse body weight and tumor diameter were measured daily. At the end of the experiment, mice were euthanized by cervical dislocation, and tumors were removed for weighing. Tumor volume (TV) was calculated using the formula: TV = 1/2 × a × b^2, where a represents the longest diameter of the tumor and b represents the shortest diameter.

[1] = target: farnesyltransferase (FTase) (Homo sapiens, UniProt P49354+P49356); settings: in vitro; cited from earlier work
Sequence of farnesyltransferase (FTase) (P49356 whole entry, one chain of several): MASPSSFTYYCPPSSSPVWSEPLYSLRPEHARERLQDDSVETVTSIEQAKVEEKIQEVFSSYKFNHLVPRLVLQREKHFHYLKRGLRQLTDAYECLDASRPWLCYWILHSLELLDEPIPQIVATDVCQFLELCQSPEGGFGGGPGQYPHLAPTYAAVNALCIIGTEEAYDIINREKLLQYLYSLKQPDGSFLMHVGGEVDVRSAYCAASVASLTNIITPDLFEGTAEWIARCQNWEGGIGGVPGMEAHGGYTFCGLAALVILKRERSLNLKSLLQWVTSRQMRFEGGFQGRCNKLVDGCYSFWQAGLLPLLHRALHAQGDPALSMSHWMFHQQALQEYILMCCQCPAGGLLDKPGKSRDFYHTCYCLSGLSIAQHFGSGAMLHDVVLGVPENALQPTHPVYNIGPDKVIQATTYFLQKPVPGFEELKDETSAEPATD

[2] = gastric fluid, within 8 hours; cited from earlier work
[3] = in vivo; cited from earlier work
tumor cells = settings: in vitro cell models; cited from earlier work
Hepa1-6 = settings: 30 mg/kg intraperitoneal injection, 14 consecutive days; cited from earlier work
physchem = settings: deionized water, 37 °C, thermodynamic from solid
[4] = Hepa1-6, oral 40 µmol/kg/d, 2 weeks

SMILES: C=C1C(=O)O[C@@H]2[C@H]3C(C)=CC[C@@]34O[C@@]4(C)CC[C@@H]12 [Arg, Arglabin]
Suppression Rate (%) (MDSCs; 1 µM): 42.5%
Suppression Rate (%) (MDSCs; 10 µM): 73.2%
CCR2 mRNA suppression rate in MDSCs (%) (CCR2 mRNA; 1 µM): 22.3%
CCR2 mRNA suppression rate in MDSCs (%) (CCR2 mRNA; 10 µM): 69.7%
Tumor Inhibition Rate (%) (Hepa1-6 cells; mouse, in vivo, po): 95.86%
Tumor weight (Hepa1-6 cells; mouse, in vivo, po): 0.04 ± 0.03 g
Tumor Suppression Rate (%) (H22 cells): 39.43%
Tumor weight (H22 cells): 5.18 ± 0.61 g
Spleen MDSCs (%) (MDSCs; T cells): 27.89±4.72 %
Spleen T cells (%) (MDSCs; T cells): 27.02±4.07%
Tumor T cells(%) (MDSCs; T cells): 17.72±6.12 %
Tumor-associated MDSCs (%) (MDSCs; T cells): 27.0±7.93 %
antitumor effects (CT26 cells; CT26, oral 80 µmol/kg/day, 3 weeks): tumor-inhibiting effects
Tumor Inhibition Rate (%) (CT26 cells; mouse, in vivo, po): 34.94%
Tumor weight (CT26 cells; mouse, in vivo, po): 5.31 ± 0.51 g
antitumor effects (4T1 cells; 4T1, oral 40 µmol/kg/day, 3 weeks): no significant antitumor effects
Tumor Inhibition Rate (%) (4T1 cells; mouse, in vivo, po): 12.87%
Tumor weight (4T1 cells; mouse, in vivo, po): 1.58 ± 0.21 g
IC50 [1]: micromolar level
degradation rate [2]: 50%
oral bioavailability [3]: 5%

solubility (physchem): 62 µg/mL (≈ 250 µM)
SMILES: C=C1C(=O)O[C@H]2[C@H]1CCC(C)=C1CC[C@@](C)(O)[C@@H]12 [MCL, Micheliolide]
Tumor Inhibition Rate (%) (Hepa1-6 cells; [4]): 70.52%
Tumor weight (Hepa1-6 cells; [4]): 0.27 ± 0.24 g
IC50 (tumor cells): micromolar range
tumor weight inhibition rate (Hepa1-6): 50%
